Structures can show the parent of a compound that is named as a salt.
The molecules below were run against T1, human vasopressin V1b receptor (Homo sapiens, UniProt P47901) (assay: Vasopressin V1b receptor binding assay). Conditions: membranes from CHO-K1 cells with stably expressed human V1b receptors, 1.5 nM 3H-AVP displacement; with more than one stereogenic center: the diastereomer with stronger affinity.
T1 construct: expressed in transfected cells; host or cells: CHO-K1 (cell line hV1b-3H2_CHO), membrane preparation
T1 sequence (P47901 1-424): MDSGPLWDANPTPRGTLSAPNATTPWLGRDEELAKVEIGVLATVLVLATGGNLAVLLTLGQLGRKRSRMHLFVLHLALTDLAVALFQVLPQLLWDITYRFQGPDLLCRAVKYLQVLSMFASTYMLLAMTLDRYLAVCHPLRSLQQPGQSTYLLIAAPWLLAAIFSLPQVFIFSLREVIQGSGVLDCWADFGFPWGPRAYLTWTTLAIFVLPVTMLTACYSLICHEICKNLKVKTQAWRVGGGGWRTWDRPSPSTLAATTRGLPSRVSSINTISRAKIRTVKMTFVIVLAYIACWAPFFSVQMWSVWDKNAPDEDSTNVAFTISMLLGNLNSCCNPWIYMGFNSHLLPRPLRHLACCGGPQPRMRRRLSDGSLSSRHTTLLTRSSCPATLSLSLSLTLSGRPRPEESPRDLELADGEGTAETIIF
Summary of the method: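 Membranes bearing human V1b receptor incubated 60 min at room temperature in 50 mM Tris, 10 mM MgCl2, 0.1% BSA, pH 7.4, 2% DMSO, triplicate.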

CCOc1ccc(OC)cc1C1(N2CCN(c3ccnc(C)c3)CC2)C(=O)N(S(=O)(=O)c2ccc(OC)c3cccnc23)c2ccc(C#N)cc21 (racemic) [Example 33, (±)-5-Cyano-3-(2-ethoxy-5-methoxyphenyl)-1-(5-methoxyquinoline-8-sulfonyl)-3-[4-(2-methylpyridin-4-yl)piperazin-1-yl]-2,3-dihydro-1H-indol-2-one] and CCOc1ccc(OC)cc1C1(N2CCN(c3ccnc(C)c3)CC2)C(=O)N(S(=O)(=O)c2cccc3cccnc23)c2ccc(C#N)cc21 (racemic) [Example 54, (±)-5-Cyano-3-(2-ethoxy-5-methoxyphenyl)-3-[4-(2-methylpyridin-4-yl)piperazin-1-yl]-1-(quinoline-8-sulfonyl)-2,3-dihydro-1H-indol-2-one] cannot be ordered by Ki: under 10 nM for the first, under 10 nM for the second.

COc1ncccc1C1(N2CCN(c3ccncc3)CC2)C(=O)N(S(=O)(=O)c2cccc3cccnc23)c2ccc(Cl)cc21 (racemic) [Example 42, (±)-5-Chloro-3-(2-methoxypyridin-3-yl)-3-(4-pyridin-4-ylpiperazin-1-yl)-1-(quinoline-8-sulfonyl)-1,3-dihydroindol-2-one] and CCOc1nc(Cl)ccc1C1(N2CCCN(c3ccncc3)CC2)C(=O)N(S(=O)(=O)c2ccc(OC)c3cccnc23)c2ccc(C#N)cc21 (racemic) [Example 71, (±)-5-Cyano-3-(6-chloro-2-ethoxypyridin-3-yl)-1-(5-methoxyquinoline-8-sulfonyl)-3-(4-pyridin-4-yl-[1,4]diazepan-1-yl)-2,3-dihydro-1H-indol-2-one] fall in the same range of Ki: 10 to 50 nM for the first, 10 to 50 nM for the second.

First: CCOc1ccccc1C1(N2CCN(c3ccnc(C(C)C)c3)CC2)C(=O)N(S(=O)(=O)c2ccc(OC)cn2)c2ccc(C#N)cc21 (racemic) [Example 150, (±)-5-Cyano-3-(2-ethoxy-phenyl)-3-[4-(2-isopropyl-pyridin-4-yl)-piperazin-1-yl]-1-(5-methoxy-pyridine-2-sulfonyl)-2,3-dihydro-1H-indol-2-one]
Second: CCOc1ccc(OC)cc1C1(N2CCN(c3ccnc(C(C)C)c3)CC2)C(=O)N(S(=O)(=O)c2cccc3cccnc23)c2ccc(C#N)cc21 (racemic) [Example 57, (±)-5-Cyano-3-(2-ethoxy-5-methoxyphenyl)-3-[4-(2-isopropylpyridin-4-yl)piperazin-1-yl]-1-(quinoline-8-sulfonyl)-2,3-dihydro-1H-indol-2-one]
The Ki of the first is higher: 10 to 50 nM for the first, under 10 nM for the second. The second binds more tightly here.

First: CCOc1cc(OC)ccc1C1(N2CCC(N3CCNCC3)CC2)C(=O)N(S(=O)(=O)c2ccc(OC)cn2)c2ccc(C#N)cc21 (single isomer, unassigned; (+)) [Example 142, (+)-5-Cyano-3-(2-ethoxy-4-methoxy-phenyl)-1-(5-methoxy-pyridine-2-sulfonyl)-3-(4-piperazin-1-yl-piperidin-1-yl)-2,3-dihydro-1H-indol-2-one]
Second: CCOc1ccc(OC)cc1C1(N2CCN(C3CCNCC3)CC2)C(=O)N(S(=O)(=O)c2ccc(OC)c3cccnc23)c2ccc(C#N)cc21 (racemic) [Example 69, (±)-5-Cyano-3-(2-ethoxy-5-methoxyphenyl)-1-(5-methoxyquinoline-8-sulfonyl)-3-(4-piperidin-4-ylpiperazin-1-yl)-2,3-dihydro-1H-indol-2-one hydrochloride]
The Ki of the first is lower: under 10 nM for the first, 10 to 50 nM for the second.

Compared with CCOc1ccc(OC)cc1C1(N2CCCN(c3ccnc(C)c3)CC2)C(=O)N(S(=O)(=O)c2ccc(OC)cn2)c2ccc(C#N)cc21 (racemic) [Example 65, (±)-5-Cyano-3-(2-ethoxy-5-methoxyphenyl)-1-(5-methoxypyridine-2-sulfonyl)-3-[4-(2-methylpyridin-4-yl)-[1,4]diazepan-1-yl]-2,3-dihydro-1H-indol-2-one], CCOc1ccccc1C1(N2CCN(c3ccncc3)CC2)C(=O)N(S(=O)(=O)c2ccccn2)c2ccc(C#N)cc21 (racemic) [Example 14, (±)-5-Cyano-3-(2-ethoxyphenyl)-1-(pyridine-2-sulfonyl)-3-(4-pyridin-4-yl-piperazin-1-yl)-2,3-dihydro-1H-indol-2-one] is higher in Ki: under 10 nM for the first, 10 to 50 nM for the second. The first binds more tightly here.

From patent US8486931B2, “Substituted oxindole compounds” (Abbott GmbH & Co. KG, priority 2007, dated 2013)
